Test results taken from patent US20230139171A1 (SITA Information Networking Computing UK Limited, priority 2019, published 2023).

Legend:
human TLR8 = molecular target: T1, human TLR8 (Homo sapiens, UniProt Q9NR97); test: TLR8 inhibition reporter assay (HEK-Blue cells, SEAP reporter, R848 stimulation); format: cell-based; conditions: HEK-Blue cells overexpressing human TLR8, SEAP reporter, R848 15.9 μM; read-out: TLR8 IC50
T1 construct: host or cells: HEK-Blue cells
T1 sequence (Q9NR97 27-1041): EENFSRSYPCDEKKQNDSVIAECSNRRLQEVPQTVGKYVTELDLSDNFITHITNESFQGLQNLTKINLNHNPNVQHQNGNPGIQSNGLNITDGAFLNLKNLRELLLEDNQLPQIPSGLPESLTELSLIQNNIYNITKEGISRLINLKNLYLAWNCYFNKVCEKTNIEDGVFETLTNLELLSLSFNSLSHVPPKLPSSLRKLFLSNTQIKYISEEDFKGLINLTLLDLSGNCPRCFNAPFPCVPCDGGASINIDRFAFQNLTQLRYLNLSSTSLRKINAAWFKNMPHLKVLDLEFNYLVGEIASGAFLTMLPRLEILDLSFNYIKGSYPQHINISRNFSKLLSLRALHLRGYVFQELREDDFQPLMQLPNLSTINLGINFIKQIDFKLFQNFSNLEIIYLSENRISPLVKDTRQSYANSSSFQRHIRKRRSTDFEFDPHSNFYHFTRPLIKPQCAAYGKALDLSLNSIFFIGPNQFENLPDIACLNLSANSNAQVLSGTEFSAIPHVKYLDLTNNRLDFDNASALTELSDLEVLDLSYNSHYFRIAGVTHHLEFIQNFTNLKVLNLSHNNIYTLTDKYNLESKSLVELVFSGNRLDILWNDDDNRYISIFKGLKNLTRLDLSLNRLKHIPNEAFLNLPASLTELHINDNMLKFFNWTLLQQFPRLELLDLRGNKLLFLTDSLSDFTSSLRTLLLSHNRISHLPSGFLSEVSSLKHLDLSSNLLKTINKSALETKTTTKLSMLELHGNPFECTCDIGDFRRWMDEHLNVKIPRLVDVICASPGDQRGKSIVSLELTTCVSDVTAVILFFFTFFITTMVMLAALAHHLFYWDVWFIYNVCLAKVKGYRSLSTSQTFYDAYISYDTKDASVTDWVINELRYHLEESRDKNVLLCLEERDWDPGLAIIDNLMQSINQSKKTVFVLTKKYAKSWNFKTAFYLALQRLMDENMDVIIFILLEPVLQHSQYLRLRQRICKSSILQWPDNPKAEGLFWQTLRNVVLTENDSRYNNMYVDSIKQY
Description: (§1) TLR7/8/9 Inhibition Reporter Assays
(§2) HEK-Blue™-cells (Invivogen) overexpressing human TLR7, TLR8 or TLR9 receptors were used for screening inhibitors of these receptors using an inducible SEAP (secreted embryonic alkaline phosphatase) reporter gene under the control of the IFN-β minimal promoter fused to five NF-κB and AP-1-binding sites. Briefly, cells are seeded into Greiner 384 well plates (15000 cells per well for TLR7, 20,000 for TLR8 and 25,000 for TLR9) and then treated with test compounds in DMSO to yield a final dose response concentration range of 0.05 nM-50 μM. After a 30 minute compound pre-treatment at room temperature, the cells are then stimulated with a TLR7 ligand (gardiquimod at a final concentration of 7.5 μM), TLR8 ligand (R848 at a final concentration of 15.9 μM) or TLR9 ligand (ODN2006 at a final concentration of 5 nM) to activate NF-κB and AP-1 which induce the production of SEAP. After a 22 hour incubation at 37° C., 5% CO2, SEAP levels are determined with the addition of HEK-Blue™ Detection reagent (Invivogen), a cell culture medium that allows for detection of SEAP, according to manufacturer's specifications. The percent inhibition is determined as the % reduction in the HEK-Blue signal present in wells treated with agonist plus DMSO alone compared to wells treated with a known inhibitor.

human TLR7 = molecular target: T2, human TLR7 (Homo sapiens, UniProt Q9NYK1); test: TLR7 inhibition reporter assay (HEK-Blue cells, SEAP reporter, gardiquimod stimulation); format: cell-based; conditions: HEK-Blue cells overexpressing human TLR7, SEAP reporter, gardiquimod 7.5 μM; read-out: TLR7 IC50
T2 construct: host or cells: HEK-Blue cells
T2 sequence (Q9NYK1 27-1049): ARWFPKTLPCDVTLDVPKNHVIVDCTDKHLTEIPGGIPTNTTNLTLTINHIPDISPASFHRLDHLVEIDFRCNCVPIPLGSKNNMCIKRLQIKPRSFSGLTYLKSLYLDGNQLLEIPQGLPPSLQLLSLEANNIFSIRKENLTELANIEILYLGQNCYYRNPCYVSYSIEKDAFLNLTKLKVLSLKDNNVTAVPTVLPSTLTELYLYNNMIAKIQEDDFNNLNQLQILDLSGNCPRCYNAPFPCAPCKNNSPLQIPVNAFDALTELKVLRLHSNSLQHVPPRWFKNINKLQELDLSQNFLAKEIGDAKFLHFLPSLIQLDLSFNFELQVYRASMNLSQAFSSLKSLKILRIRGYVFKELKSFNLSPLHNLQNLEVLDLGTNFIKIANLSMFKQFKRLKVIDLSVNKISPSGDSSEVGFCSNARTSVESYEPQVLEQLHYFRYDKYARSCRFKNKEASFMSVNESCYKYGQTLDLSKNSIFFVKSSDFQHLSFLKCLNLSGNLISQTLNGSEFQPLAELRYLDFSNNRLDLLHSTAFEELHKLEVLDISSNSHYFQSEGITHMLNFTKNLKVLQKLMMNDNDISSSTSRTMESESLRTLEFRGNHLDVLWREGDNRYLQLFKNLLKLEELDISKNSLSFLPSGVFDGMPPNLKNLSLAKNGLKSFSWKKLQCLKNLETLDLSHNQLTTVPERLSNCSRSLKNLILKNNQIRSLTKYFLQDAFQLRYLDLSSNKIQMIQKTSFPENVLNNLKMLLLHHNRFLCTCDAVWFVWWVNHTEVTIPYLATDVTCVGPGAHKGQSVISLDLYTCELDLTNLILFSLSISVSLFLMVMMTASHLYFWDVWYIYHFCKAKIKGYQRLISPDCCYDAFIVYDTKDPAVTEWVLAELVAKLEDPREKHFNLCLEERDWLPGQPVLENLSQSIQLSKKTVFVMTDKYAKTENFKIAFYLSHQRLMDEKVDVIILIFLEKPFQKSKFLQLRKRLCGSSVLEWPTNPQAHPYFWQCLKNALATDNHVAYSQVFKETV
Description: as §1, §2

| IC50 (human TLR8) [µM] | IC50 (human TLR7) [µM] | Structure (SMILES) |
| --- | --- | --- |
| 0.00312 | 0.0234 | Cc1c(-c2[nH]c3sc(N4CCN(CC(C)(C)O)C[C@@H]4C)nc3c2C(C)C)cn2ncnc2c1C [Example 345, (S)-1-(4-(5-(7,8-dimethyl-[1,2,4]triazolo[1,5-a]pyridin-6-yl)-6-isopropyl-4H-pyrrolo[3,2-d]thiazol-2-yl)-3-methylpiperazin-1-yl)-2-methylpropan-2-ol] |
| 0.0445 | 0.0229 | Cc1c(-c2[nH]c3sc(N4CCN(C(=O)C5CCS(=O)(=O)CC5)C[C@@H]4C)nc3c2C(C)C)cn2ncnc2c1C [Example 347, (S)-(4-(5-(7,8-dimethyl-[1,2,4]triazolo[1,5-a]pyridin-6-yl)-6-isopropyl-4H-pyrrolo[3,2-d]thiazol-2-yl)-3-methylpiperazin-1-yl)(1,1-dioxidotetrahydro-2H-thiopyran-4-yl)methanone] |
| 0.0224 | 0.0191 | Cc1c(-c2[nH]c3sc(N4CCN(C5COC5)C[C@@H]4C)nc3c2C(C)C)cn2ncnc2c1C [Example 348, (S)-5-(7,8-dimethyl-[1,2,4]triazolo[1,5-a]pyridin-6-yl)-6-isopropyl-2-(2-methyl-4-(oxetan-3-yl)piperazin-1-yl)-4H-pyrrolo[3,2-d]thiazole] |
| 0.00185 | 0.091 | Cc1c(-c2[nH]c3sc(N4CCN(C5CCC5)C[C@@H]4C)nc3c2C(C)C)cn2ncnc2c1C [Example 349] |
| 1.33 | 1.22 | Cc1cc(-c2[nH]c3sc(N4CCN(C(=O)CN(C)C)C[C@H]4C)nc3c2C(C)C)cn2ncnc12 [Example 360, (R)-2-(dimethylamino)-1-(4-(6-isopropyl-5-(8-methyl-[1,2,4]triazolo[1,5-a]pyridin-6-yl)-4H-pyrrolo[3,2-d]thiazol-2-yl)-3-methylpiperazin-1-yl)ethan-1-one] |
| 0.0294 | 0.0721 | Cc1c(-c2[nH]c3sc(C(=O)NCCCN4CCCC4=O)nc3c2C(C)C)cn2ncnc2c1C [Example 371, 5-(7,8-dimethyl-[1,2,4]triazolo[1,5-a]pyridin-6-yl)-6-isopropyl-N-(3-(2-oxopyrrolidin-1-yl)propyl)-4H-pyrrolo[3,2-d]thiazole-2-carboxamide] |
| 0.0182 | 0.0569 | Cc1c(-c2[nH]c3sc(C(=O)N4CCCC4)nc3c2C(C)C)cn2ncnc2c1C [Example 377, (5-(7,8-dimethyl-[1,2,4]triazolo[1,5-a]pyridin-6-yl)-6-isopropyl-4H-pyrrolo[3,2-d]thiazol-2-yl)(pyrrolidin-1-yl)methanone] |
| 0.0122 | 0.0294 | Cc1c(-c2[nH]c3sc(C(=O)N4CCNC(=O)C4)nc3c2C(C)C)cn2ncnc2c1C [Example 378, 4-(5-(7,8-dimethyl-[1,2,4]triazolo[1,5-a]pyridin-6-yl)-6-isopropyl-4H-pyrrolo[3,2-d]thiazole-2-carbonyl)piperazin-2-one] |
| 0.0201 | 0.0395 | Cc1c(-c2[nH]c3sc(C(=O)N4CCN(S(C)(=O)=O)CC4)nc3c2C(C)C)cn2ncnc2c1C [Example 384, (5-(7,8-dimethyl-[1,2,4]triazolo[1,5-a]pyridin-6-yl)-6-isopropyl-4H-pyrrolo[3,2-d]thiazol-2-yl)(4-(methylsulfonyl)piperazin-1-yl) methanone] |
| 0.0314 | 0.0588 | Cc1c(-c2[nH]c3sc(C(N)=O)nc3c2C(C)C)cn2ncnc2c1C [Example 385, 5-(7,8-dimethyl-[1,2,4]triazolo[1,5-a]pyridin-6-yl)-6-isopropyl-4H-pyrrolo[3,2-d]thiazole-2-carboxamide] |
| 0.481 | 0.0936 | COc1cc(-c2[nH]c3sc(C(=O)NCC(F)(F)F)nc3c2C(C)C)cn2ncnc12 [Example 390, 6-isopropyl-5-(8-methoxy-[1,2,4]triazolo[1,5-a]pyridin-6-yl)-N-(2,2,2-trifluoroethyl)-4H-pyrrolo[3,2-d]thiazole-2-carboxamide] |
| 0.118 | 0.102 | Cc1cc(-c2[nH]c3sc(C(N)=O)nc3c2C(C)C)cn2ncnc12 [Example 391, 6-isopropyl-5-(8-methyl-[1,2,4]triazolo[1,5-a]pyridin-6-yl)-4H-pyrrolo[3,2-d]thiazole-2-carboxamide] |
| 0.404 | 0.241 | Cc1cc(-c2[nH]c3sc(C(=O)N4CCNC(=O)C4)nc3c2C(C)C)cn2ncnc12 [Example 392, 4-(6-isopropyl-5-(8-methyl-[1,2,4]triazolo[1,5-a]pyridin-6-yl)-4H-pyrrolo[3,2-d]thiazole-2-carbonyl)piperazin-2-one] |
| 0.14 | 0.0776 | Cc1cc(-c2[nH]c3sc(C(=O)N4CCCC4)nc3c2C(C)C)cn2ncnc12 [Example 393, (6-isopropyl-5-(8-methyl-[1,2,4]triazolo[1,5-a]pyridin-6-yl)-4H-pyrrolo[3,2-d]thiazol-2-yl)(pyrrolidin-1-yl) methanone] |
| 0.529 | 0.154 | Cc1cc(-c2[nH]c3sc(C(=O)N4CCCOCC4)nc3c2C(C)C)cn2ncnc12 [Example 394, (6-isopropyl-5-(8-methyl-[1,2,4]triazolo[1,5-a]pyridin-6-yl)-4H-pyrrolo[3,2-d]thiazol-2-yl)(1,4-oxazepan-4-yl)methanone] |
| 0.0539 | 0.102 | COC1CN(C(=O)c2nc3c(C(C)C)c(-c4cc(C)c5ncnn5c4)[nH]c3s2)C1 [Example 396, (6-isopropyl-5-(8-methyl-[1,2,4]triazolo[1,5-a]pyridin-6-yl)-4H-pyrrolo[3,2-d]thiazol-2-yl)(3-methoxyazetidin-1-yl)methanone] |
| 0.463 | 0.221 | Cc1cc(-c2[nH]c3sc(C(=O)NC4COC4)nc3c2C(C)C)cn2ncnc12 [Example 397, 6-isopropyl-5-(8-methyl-[1,2,4]triazolo[1,5-a]pyridin-6-yl)-N-(oxetan-3-yl)-4H-pyrrolo[3,2-d]thiazole-2-carboxamide] |
